In US9839640B2, “Methods of treating eye diseases associated with inflammation and vascular proliferation” (OccuRx Pty Ltd, priority 2010, dated 2017):

Assays:
Type in all cases: in vivo, rat
[1] = Animal characteristics (8 weeks study), STZ diabetic (mRen-2) 27 rats treated with FT011; conditions: FT011 200 mg/kg/day (100 mg/kg bid gavage), P < 0.05 versus untreated diabetes
Description: (§1) Ninety, six-week old female, heterozygous (mRen-2) 27 rats (St. Vincent's Hospital Animal House, Melbourne, Australia) were assigned to receive either 55 mg/kg of streptozotocin (STZ) (Sigma, St. Louis, USA) diluted in 0.1 M citrate buffer, pH 4.5 or citrate buffer alone (non-diabetic control) by tail vein injection following an overnight fast. In short term study, rats were randomly assigned to receive (n=10/group) treatment with either FT011 (100 mg/kg bid gavage) or vehicle for 8 weeks. Non-diabetic animals (n=10) served as controls. In the long term study, at 16 weeks of STZ diabetes rats were randomly assigned to either treatment (n=15/group) with, FT011 (50 mg/kg/day BID), FT011 (100 mg/kg BID) or no treatment for a further 16 weeks. Non-diabetic animals (n=15) served as controls. Each week, rats were weighed and their blood glucose levels were measured (Accu-check Advantage II Blood Glucose Monitor, Roche Diagnostics, USA) and only STZ-treated animals with blood glucose >15 mmol/L were considered diabetic. Every 4 weeks, SBP was determined in preheated conscious rats via tail-cuff plethysmography using a non-invasive blood pressure (NIBP) controller and Powerlab (AD instruments, NSW, Australia). Haemoglobin A1c (HbA1c) was measured by HPLC at the end of the study in the Department of Pathology, St Vincent's Hospital. […]

[2] = Animal characteristics (32 weeks study), STZ diabetic (mRen-2) 27 rats treated with FT011
Description: as §1

leukocytes in the retina [3] = assay: Leukostasis (short term study), rhodamine-coupled Concanavalin A staining of retina
Description: as §1

ICAM-1 mRNA [4] = assay: Real time PCR of retinal ICAM-1 mRNA (short term study); conditions: FIG. 3; diabetic rats treated with FT011, short term 8 week study; normalised to 18S rRNA
Description: as §1

acellular capillaries = assay: Trypsin digest, acellular capillaries in PAS stained retina (long term study 32 weeks); conditions: diabetic rats, 100 mg/kg/day FT011, long term study
Description: as §1

leukocytes in the retina [5] = assay: Leukostasis, rhodamine-coupled Concanavalin A staining of retina (FT061 study)
Description: (§2) Sixty, six-week old female, heterozygous (mRen-2) 27 rats (St. Vincent's Hospital Animal House, Melbourne, Australia) were assigned to receive either 55 mg/kg of streptozotocin (STZ) (Sigma, St. Louis, USA) diluted in 0.1 M citrate buffer, pH 4.5 or citrate buffer alone (non-diabetic control) by tail vein injection following an overnight fast. Rats were randomly assigned to receive (n=15/group) treatment with either FT061 (100 mg/kg/day gavage) or vehicle for 8 weeks. Non-diabetic animals (n=15) served as controls. Each week, rats were weighed and their blood glucose levels were measured (Accu-check Advantage II Blood Glucose Monitor, Roche Diagnostics, USA) and only STZ-treated animals with blood glucose >15 mmol/L were considered diabetic. Every 4 weeks, SBP was determined in preheated conscious rats via tail-cuff plethysmography using a non-invasive blood pressure (NIBP) controller and Powerlab (AD instruments, NSW, Australia). Diabetic rats received a daily injection of insulin (2-4 units intraperitoneally; Humulin NPH, Eli Lilly and Co., Indianapolis, Ind.) to reduce mortality and to promote weight gain.
At the end of the study, rats were anaesthetized with Lethobarb (60 mg/kg) and the chest cavity was opened. […] The total number of leukocytes was counted per retina. […]

ICAM-1 mRNA [6] = assay: Real time PCR of retinal ICAM-1 mRNA (FT061 study); conditions: FIG. 8; diabetic rats, FT061 100 mg/kg/day 8 weeks, compared to controls and untreated diabetes
Description: as §2, with “Diabetic rats received a daily injection of insulin (2-4 units intraperitoneally; Humulin NPH, Eli Lilly and Co., Indianapolis, Ind.) to reduce mortality and to promote weight gain.” left out
(§3) At the end of the study, rats were anaesthetized with lethobarb (60 mg/kg), eyes were enucleated and retinae dissected and placed in RNAlater (#R0901, Sigma-Aldrich). […] RNA concentration was determined on a Nanodrop 3.1.2, after which 1 μg of RNA was DNase treated (DNA-free kit, Ambion) and reverse transcribed (First Strand cDNA Synthesis Kit for RT-PCR, Roche). […]

VEGF mRNA = assay: Real time PCR of retinal VEGF mRNA (FT061 study); conditions: FIG. 9; diabetic rats, FT061 100 mg/kg/day 8 weeks, compared to controls and untreated diabetes
Description: as §2, with “Diabetic rats received a daily injection of insulin (2-4 units intraperitoneally; Humulin NPH, Eli Lilly and Co., Indianapolis, Ind.) to reduce mortality and to promote weight gain.” left out
as §3

Row | Structure (SMILES) | HbA1C [1] [%] | HbA1C ([2]; FT011 100 mk/kg/day, P < 0.05 versus control) [%] | HbA1C ([2]; FT011 200 mk/kg/day, P < 0.05 versus untreated diabetes) [%] | total number of leukocytes in the retina (leukocytes in the retina [3]; FIG. 1, diabetic rats, FT011 100 mg/kg bid gavage 8 weeks, compared to untreated diabetic rats) | leukostasis (representative micrographs) (leukocytes in the retina [3]; FIG. 2, diabetic rats treated with FT011, short term study) | retinal ICAM-1 mRNA levels (ICAM-1 mRNA [4]) | number of acellular capillaries per field (acellular capillaries; FIG. 4, compared to untreated diabetic rats) | acellular capillaries (pericyte ghost), representative micrographs (acellular capillaries; FIG. 5) | total number of leukocytes in the retina (leukocytes in the retina [5]; FIG. 6, diabetic rats, FT061 100 mg/kg/day gavage 8 weeks, compared to untreated diabetic rats) | leukostasis (representative photomicrographs) (leukocytes in the retina [5]; FIG. 7, diabetic rats treated with FT061) | retinal ICAM-1 mRNA levels (ICAM-1 mRNA [6]) | retinal VEGF mRNA levels (VEGF mRNA)
1 | C#CCOc1ccc(/C=C/C(=O)Nc2ccccc2C(=O)O)cc1OC [FT011] | 8.9 ± 0.50 | 7.65 ± 0.25 | 6.58 ± 0.37 | significantly less | significantly reduced leukostasis | reduction in ICAM-1 mRNA levels | less acellular capillaries | pericyte ghosts were not apparent |  |  |  | 
2 | O=C(/C=C/c1ccc(OC(F)F)c(OC(F)F)c1)Nc1ccccc1C(=O)O [FT061] |  |  |  |  |  |  |  |  | significantly less | significantly reduced leukostasis | reduction in ICAM-1 mRNA levels | reduction in VEGF mRNA levels
